Assay results as given in PMC7586935 (Journal of Clinical Pharmacology, 2020).
Structures can show the parent of a compound that is named as a salt.

Experiments:
[1] = tested on: human ether‐a‐go‐go–related gene potassium channels; settings: in vitro, at clinically relevant plasma concentrations; cited from earlier work
[2] = tested on: QT/QTc interval of healthy volunteers; experiment: Concentration-QTc
[3] = tested on: QTcF interval of healthy volunteers; experiment: Time-matched analysis of placebo-adjusted change from baseline QTcF; assay type: in vivo, human
[4] = tested on: HR, PR, and QRS of healthy volunteers; experiment: PK-PD analysis of other ECG parameters; assay type: in vivo, human
[5] = tested on: healthy volunteers; experiment: ECG outlier analyses; assay type: in vivo, human; settings: trazodone 20 mg, n = 18

For `O=c1n(CCCN2CCN(c3cccc(Cl)c3)CC2)nc2ccccn12` [Trazodone, Trazodone hydrochloride], the “Inhibition of hERG potassium channels” value [1] is listed as “potent dose‐dependent inhibition”, the “Predicted Mean Effect at Mean Cmax (placebo-corrected change from baseline QTcF, ΔΔQTcF)” value ([2]; trazodone 60 mg, mean Cmax 1269.0 ng/mL) is listed as 12.3 ms and the “Predicted Mean Effect at Mean Cmax (placebo-corrected change from baseline QTcF, ΔΔQTcF)” value ([2]; trazodone 140 mg, mean Cmax 2083.5 ng/mL) is listed as 19.8 ms. For the same compound, the “Placebo-adjusted change from baseline QTcF, estimate (90%CI)” value (from here on “Placebo-adjusted change … (90%CI)”) ([3]; trazodone 20 mg, N = 16, 5 min postdose) was “–3.3 (–7.8 to 1.1) ms”, the “Placebo-adjusted change … (90%CI)” value ([3]; trazodone 20 mg, N = 16, 10 min postdose) was “–1.2 (–6.2 to 3.8) ms” and the “Placebo-adjusted change … (90%CI)” value ([3]; trazodone 20 mg, N = 16, 20 min postdose) was “–0.2 (–5.4 to 5.0) ms”. The “Placebo-adjusted change … (90%CI)” value ([3]; trazodone 20 mg, N = 16, 0.5 h postdose) was 2.1 (–0.3 to 4.6) ms, the “Placebo-adjusted change … (90%CI)” value ([3]; trazodone 20 mg, N = 16, 1 h postdose) was 6.6 (1.5–11.7) ms and the “Placebo-adjusted change … (90%CI)” value ([3]; trazodone 20 mg, N = 16, 2 h postdose) was 3.5 (0.5–6.5) ms. The “Placebo-adjusted change … (90%CI)” value ([3]; trazodone 20 mg, N = 16, 3 h postdose) was 1.7 (–2.7 to 6.1) ms, the “Placebo-adjusted change … (90%CI)” value ([3]; trazodone 20 mg, N = 16, 4 h postdose) was 3.2 (–2.3 to 8.6) ms and the “Placebo-adjusted change … (90%CI)” value ([3]; trazodone 20 mg, N = 16, 6 h postdose) was “–0.2 (–4.8 to 4.3) ms”. The “Placebo-adjusted change … (90%CI)” value ([3]; trazodone 20 mg, N = 16, 8 h postdose) was 1.2 (–2.3 to 4.6) ms, the “Placebo-adjusted change … (90%CI)” value ([3]; trazodone 20 mg, N = 16, 12 h postdose) was 0.6 (–4.7 to 5.8) ms and the “Placebo-adjusted change … (90%CI)” value ([3]; trazodone 20 mg, N = 16, 16 h postdose) was “–3.3 (–6.9 to 0.3) ms”. For the same compound, the “Placebo-adjusted change … (90%CI)” value ([3]; trazodone 20 mg, N = 16, 24 h postdose) was 1.8 (–3.5 to 7.1) ms, the “Placebo-adjusted change … (90%CI)” value ([3]; trazodone 60 mg, N = 16, 5 min postdose) was “–2.3 (–6.7 to 2.1) ms” and the “Placebo-adjusted change … (90%CI)” value ([3]; trazodone 60 mg, N = 16, 10 min postdose) was 0.3 (–4.1 to 4.6) ms. For the same compound, the “Placebo-adjusted change … (90%CI)” value ([3]; trazodone 60 mg, N = 16, 20 min postdose) was 4.8 (–0.4 to 10.0) ms, the “Placebo-adjusted change … (90%CI)” value ([3]; trazodone 60 mg, N = 16, 0.5 h postdose) was 11.9 (8.6–15.3) ms and the “Placebo-adjusted change … (90%CI)” value ([3]; trazodone 60 mg, N = 16, 2 h postdose) was 8.8 (4.2–13.4) ms. For the same compound, the “Placebo-adjusted change … (90%CI)” value ([3]; trazodone 60 mg, N = 16, 3 h postdose) was 6.1 (1.9–10.2) ms, the “Placebo-adjusted change … (90%CI)” value ([3]; trazodone 60 mg, N = 16, 4 h postdose) was 7.9 (4.3–11.5) ms and the “Placebo-adjusted change … (90%CI)” value ([3]; trazodone 60 mg, N = 16, 6 h postdose) was 2.2 (–1.8 to 6.2) ms. For the same compound, the “Placebo-adjusted change … (90%CI)” value ([3]; trazodone 60 mg, N = 16, 8 h postdose) was “–0.4 (–3.4 to 2.7) ms”, the “Placebo-adjusted change … (90%CI)” value ([3]; trazodone 60 mg, N = 16, 12 h postdose) was 6.4 (1.7–11.0) ms and the “Placebo-adjusted change … (90%CI)” value ([3]; trazodone 60 mg, N = 16, 16 h postdose) was “–1.4 (–5.6 to 2.7) ms”. The “Placebo-adjusted change … (90%CI)” value ([3]; trazodone 60 mg, N = 16, 24 h postdose) was 2.0 (–3.0 to 6.9) ms, the “Placebo-adjusted change … (90%CI)” value ([3]; trazodone 60 mg, N = 16, […] postdose) was 16.9 ms and the “Increase in the QTcF interval (time-matched analysis)” value ([3]; trazodone 60 mg, between 30 minutes and […] postdose) was over 10 ms. The “Placebo-adjusted change … (90%CI)” value ([3]; trazodone 140 mg, N = 18, 5 min postdose) was 0.8 (–2.7 to 4.4) ms, the “Placebo-adjusted change … (90%CI)” value ([3]; trazodone 140 mg, N = 18, 10 min postdose) was 0.5 (–3.0 to 4.0) ms and the “Placebo-adjusted change … (90%CI)” value ([3]; trazodone 140 mg, N = 18, 20 min postdose) was 11.6 (7.8–15.5) ms. The “Placebo-adjusted change … (90%CI)” value ([3]; trazodone 140 mg, N = 18, 0.5 h postdose) was 20.2 (16.4–23.9) ms, the “Placebo-adjusted change … (90%CI)” value ([3]; trazodone 140 mg, N = 18, 1 h postdose) was 24.5 (20.3–28.7) ms and the “Placebo-adjusted change … (90%CI)” value ([3]; trazodone 140 mg, N = 18, 2 h postdose) was 17.1 (13.4–20.8) ms. For the same compound, the “Placebo-adjusted change … (90%CI)” value ([3]; trazodone 140 mg, N = 18, 3 h postdose) was 14.5 (7.6–21.5) ms, the “Placebo-adjusted change … (90%CI)” value ([3]; trazodone 140 mg, N = 18, 4 h postdose) was 12.8 (8.5–17.1) ms and the “Placebo-adjusted change … (90%CI)” value ([3]; trazodone 140 mg, N = 18, 6 h postdose) was 6.7 (2.3–11.2) ms. The “Placebo-adjusted change … (90%CI)” value ([3]; trazodone 140 mg, N = 18, 8 h postdose) was 5.8 (0.9–10.7) ms, the “Placebo-adjusted change … (90%CI)” value ([3]; trazodone 140 mg, N = 18, 12 h postdose) was 7.9 (4.3–11.6) ms and the “Placebo-adjusted change … (90%CI)” value ([3]; trazodone 140 mg, N = 18, 16 h postdose) was “–0.7 (–5.2 to 3.8) ms”. The “Placebo-adjusted change … (90%CI)” value ([3]; trazodone 140 mg, N = 18, 24 h postdose) was 1.7 (–1.4 to 4.8) ms, the “Increase in the QTcF interval (time-matched analysis)” value ([3]; trazodone 140 mg, between 15 minutes and 4 hours postdose) was over 10 ms and the “Slope of HR change from baseline vs trazodone plasma concentration” value ([4]; SE 0.8013) was 2.199. The “Slope of PR change from baseline vs trazodone plasma concentration” value ([4]; in vivo) was “–3.6040”, the “Slope of QRS change from baseline vs trazodone plasma concentration” value ([4]; in vivo) was 0.0445 and the “Predicted placebo-adjusted and baseline-corrected HR at mean Cmax” value ([4]; trazodone 20 mg) was 1.45 bpm. For the same compound, the “Predicted placebo-adjusted and baseline-corrected HR at mean Cmax” value ([4]; trazodone 60 mg) was 2.12 bpm, the “Predicted placebo-adjusted and baseline-corrected HR at mean Cmax” value ([4]; trazodone 140 mg) was 2.76 bpm and the “Predicted placebo-adjusted and baseline-corrected PR at predicted Cmax” value ([4]; trazodone 140 mg) was “–7.4 ms”. For the same compound, the “Predicted placebo-adjusted and baseline-corrected QRS at predicted Cmax” value ([4]; trazodone 140 mg) was 0.115 ms, the “Heart rate: Bradycardic outliers” value [5] was 0 n (%) and the “Heart rate: Tachycardic outliers” value [5] was 0 n (%). For the same compound, the “PR interval: Outliers” value [5] was 1 (6) n (%), the “QRS interval: Outliers” value [5] was 0 n (%) and the “QTcF >30‐60 ms inc change from baseline” value [5] was 0 n (%).
